Among the data in ChEMBL document CHEMBL1157334, “Neuroprotective diterpenes from the fruiting body of Antrodia camphorata” (2006) are viability and Activity values, retold here.

A short description of experiment [1]: Neuroprotective effect against amyloid beta(25 to 35)-induced cell death in Harlan Sprague-Dawley rat pups cortical neurons assessed as cell viability at 10 uM treated 2 hrs before amyloid beta(25 to 35) treatment after 40 hrs by MTT assay. Format: functional. Particulars: Cortical neurone, read-out: Activity. For orientation: Formazan colour is commonly taken as a measure of viable cells.

Experiment [2] is described as follows: Neuroprotective effect against amyloid beta(25 to 35)-induced cell death in Harlan Sprague-Dawley rat pups cortical neurons assessed as cell viability at 5 uM treated 2 hrs before amyloid beta(25 to 35) treatment after 40 hrs by MTT assay. It counts as functional, Cortical neurone. Particulars: for viability at 5 µM: Rattus norvegicus, Harlan Sprague-Dawley, Cortical neurone, read-out: Activity.

Experiment [3] in a line: Neuroprotective effect against amyloid beta(25 to 35)-induced cell death in Harlan Sprague-Dawley rat pups cortical neurons assessed as cell viability at 1 uM treated 2 hrs before amyloid beta(25 to 35) treatment after 40 hrs by MTT assay. It counts as functional, Cortical neurone. Particulars: for viability at 1 µM: Rattus norvegicus, Harlan Sprague-Dawley, Cortical neurone, read-out: Activity.

SMILES strings stand for the structures.

In the case of `C=C1CC[C@@H]2[C@](C)(CO)[C@H](O)CC[C@@]2(C)[C@@H]1/C=C/C1=CCOC1=O`, the viability at 10 µM in experiment [1] is 30.8%. For the same molecule, in experiment [2], the viability at 5 µM came out at 35.7%. The viability at 1 µM in experiment [3] came out at 40.7%.
The corresponding values for `CC(=O)N[C@@H](CC(=O)O)C(=O)N[C@@H](CCC(=O)O)C(=O)N[C@H](C(=O)N[C@H](C=O)CC(=O)O)C(C)C` are 24.5%, 30.2% and 35.8%.
The like results for `C=C1CC[C@H]2[C@@](C)(CO)CCC[C@]2(C)[C@H]1CCC1CCOC1=O` (some centres not stated) were, in that order, 28.1%, 25.3% and 34.4%.
`C=C1CC[C@H]2[C@@](C)(CO)CCC[C@]2(C)[C@H]1CCC1=CCOC1=O`: in experiment [1], the viability at 10 µM stood at 28.9%. The viability at 5 µM in experiment [2] came out at 34.8%. Also, the viability at 1 µM in experiment [3] was 41.2%.
As to `C=C1CC[C@@H]2[C@](C)(CC[C@H](O)[C@]2(C)CO)[C@H]1/C=C/C1CCOC1=O` (stereo in doubt; 2), the Activity in experiment [2] is 34.9%; in experiment [3], 43.8%.
Consider `C=C1CC[C@@H]2[C@](C)(CC[C@H](O)[C@]2(C)CO)[C@H]1/C=C/C1CCOC1=O` (stereo in doubt; 3), for which the viability at 10 µM in experiment [1] amounted to 36.7%. For the same molecule, in experiment [2], the viability at 5 µM is 39.6%. For the same molecule, the viability at 1 µM in experiment [3] worked out at 45.1%.
